Reference: patent US20120115869A1, “TETRAZOLE DERIVATIVES” (MERCK SERONO S.A., priority 2009, published 2012)

What follows are molecules tested against T1, CRTH2 (DP2) (Homo sapiens, UniProt Q9Y5Y4) (assay: Radioligand binding Scintillation Proximity Assay ([3H]PGD2, hCRTH2-CHO cell membranes)). Details: 1.5 nM [3H]PGD2, hCRTH2-CHO cell membranes, SPA.
T1 construct: host or cells: CHO cells
T1 sequence (Q9Y5Y4 1-395): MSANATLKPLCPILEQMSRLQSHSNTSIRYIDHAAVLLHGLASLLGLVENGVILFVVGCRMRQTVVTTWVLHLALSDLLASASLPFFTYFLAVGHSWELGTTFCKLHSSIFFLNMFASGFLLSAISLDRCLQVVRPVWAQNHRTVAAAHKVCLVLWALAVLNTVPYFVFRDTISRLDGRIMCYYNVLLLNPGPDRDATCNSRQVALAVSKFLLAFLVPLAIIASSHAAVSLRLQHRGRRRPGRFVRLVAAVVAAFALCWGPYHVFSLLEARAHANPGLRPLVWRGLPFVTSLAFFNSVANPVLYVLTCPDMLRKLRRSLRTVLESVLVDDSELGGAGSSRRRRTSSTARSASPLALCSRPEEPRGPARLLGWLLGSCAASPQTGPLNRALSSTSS
Experimental: (§1) Adherent CHO cells expressing hCRTH2 (Euroscreen, Belgium) were cultured in 225 cm^2 cell culture flasks (Corning, USA) in 30 ml of medium. After two rinses of phosphate buffered saline (PBS), cells were harvested in 10 ml of PBS containing 1 mM EDTA, centrifuged at 500×g for 5 min at 4° C. and frozen at −80° C. The pellet was re-suspended in 50 mM Tris-HCl, pH 7.4, 2 mM EDTA, 250 mM Sucrose, containing protease inhibitor cocktail tablets, (Complete EDTA-free, Roche, Germany) and incubated 30 min at 4° C. Cells were disrupted by nitrogen cavitation (Parr Instruments, USA) at 4° C. (800 p.s.i. for 30 min), and centrifuged at 500×g for 10 min at 4° C. Pellet containing nuclei and cellular debris was discarded and supernatant was centrifuged 60 min at 4° C. at 45000×g. Membrane pellet was re-suspended in storage buffer (10 mM HEPES/KOH pH 7.4, 1 mM EDTA, 250 mM sucrose, protease inhibitor cocktail tablets) using Dounce homogenization and frozen in liquid nitrogen, and stored at 80° C.
Non-specific binding was determined in the presence of 10 μM PGD2 (Cayman, USA). Competing Compounds of Formula (I) were diluted in dimethylsulphoxide so that the total volume of dimethylsulfoxide was kept constant at 1% dimethylsulphoxide (Me2SO). Serial dilutions of […] were prepared and 10 μl each of the compounds of Formula (I) stock solutions were added to the binding assay reagents and incubated for 90 min with agitation at room temperature.

Row | IC50 | Structure (SMILES)
1 | 9.6 nM | CCC(=O)N(Cc1cccc(OC)c1)c1cc(F)cc(-c2nnn[nH]2)c1 [Example 39, N-[3-fluoro-5-(1H-tetrazol-5-yl)phenyl]-N-(3-methoxybenzyl)propanamide]
2 | 140 nM | CCC(=O)N(Cc1ccc(-c2cccnc2)cc1)c1cc(F)cc(-c2nnn[nH]2)c1 [Example 90, N-[3-fluoro-5-(1H-tetrazol-5-yl)phenyl]-N-(4-pyridin-3-ylbenzyl)propanamide]
3 | 145 nM | CCC(=O)N(Cc1ccc(-c2cccc(S(=O)(=O)N3CCOCC3)c2)cc1)c1cc(F)cc(-c2nnn[nH]2)c1 [Example 91, N-[3-fluoro-5-(1H-tetrazol-5-yl)phenyl]-N-{[3′-(morpholin-4-ylsulfonyl)biphenyl-4-yl]methyl}propanamide]
4 | 160 nM | CCC(=O)N(Cc1ccc(-c2cccc(S(=O)(=O)NCCO)c2)cc1)c1cc(F)cc(-c2nnn[nH]2)c1 [Example 92, N-[3-fluoro-5-(1H-tetrazol-5-yl)phenyl]-N-[(3′-{[(2-hydroxyethyl)amino]sulfonyl}biphenyl-4-yl)methyl]propanamide]
5 | 125 nM | CCC(=O)N(Cc1ccc(-c2cccc(S(=O)(=O)N(C)C)c2)cc1)c1cc(F)cc(-c2nnn[nH]2)c1 [Example 93, N-({3′-[(dimethylamino)sulfonyl]biphenyl-4-yl}methyl)-N-[3-fluoro-5-(1H-tetrazol-5-yl)phenyl]propanamide]
6 | 21 nM | CCC(=O)N(Cc1ccc(-c2c(C)nn(C)c2C)cc1)c1cc(F)cc(-c2nnn[nH]2)c1 [Example 94, N-[3-fluoro-5-(1H-tetrazol-5-yl)phenyl]-N-[4-(1,3,5-trimethyl-1H-pyrazol-4-yl)benzyl]propanamide]
7 | 5.6 nM | CCC(=O)N(Cc1ccc(S(=O)(=O)C(F)(F)F)cc1)c1cc(F)cc(-c2nnn[nH]2)c1 [Example 95, N-[3-fluoro-5-(1H-tetrazol-5-yl)phenyl]-N-{4-[(trifluoromethyl)sulfonyl]benzyl}propanamide]
8 | 330 nM | CCC(=O)N(Cc1cccc(-c2ccncc2)c1)c1cccc(-c2nnn[nH]2)c1 [Example 96, N-(3-pyridin-4-ylbenzyl)-N-[3-(1H-tetrazol-5-yl)phenyl]propanamide]
9 | 70 nM | CCC(=O)N(Cc1ccc(-c2ccccc2)cc1)c1cc(F)cc(-c2nnn[nH]2)c1 [Example 97, N-(biphenyl-4-ylmethyl)-N-[3-fluoro-5-(1H-tetrazol-5-yl)phenyl]propanamide]
10 | 31 nM | CCC(=O)N(Cc1ccc(-c2ccccc2Cl)cc1)c1cc(F)cc(-c2nnn[nH]2)c1 [Example 98, N-[(2′-chlorobiphenyl-4-yl)methyl]-N-[3-fluoro-5-(1H-tetrazol-5-yl)phenyl]propanamide]
11 | 13 nM | CCC(=O)N(Cc1ccc(-c2ccccc2OC)cc1)c1cc(F)cc(-c2nnn[nH]2)c1 [Example 99, N-[3-fluoro-5-(1H-tetrazol-5-yl)phenyl]-N-[(2′-methoxybiphenyl-4-yl)methyl]propanamide]
12 | 8.3 nM | CCC(=O)N(Cc1ccc(-c2c(C)cccc2C)cc1)c1cc(F)cc(-c2nnn[nH]2)c1 [Example 100]
13 | 19 nM | CCC(=O)N(Cc1cccc(-c2cn[nH]c2)c1)c1cc(F)cc(-c2nnn[nH]2)c1 [Example 101, N-[3-fluoro-5-(1H-tetrazol-5-yl)phenyl]-N-[3-(1H-pyrazol-4-yl)benzyl]propanamide]
14 | 8.9 nM | CCC(=O)N(Cc1ccc(-c2ccccc2C)cc1)c1cc(F)cc(-c2nnn[nH]2)c1 [Example 102, N-[3-fluoro-5-(1H-tetrazol-5-yl)phenyl]-N-[(2′-methylbiphenyl-4-yl)methyl]propanamide]
15 | 13 nM | CCC(=O)N(Cc1ccc2c(c1)OC(F)(F)O2)c1cc(Cl)cc(-c2nnn[nH]2)c1 [Example 103, N-[3-chloro-5-(1H-tetrazol-5-yl)phenyl]-N-[(2,2-difluoro-1,3-benzodioxol-5-yl)methyl]propanamide]
16 | 20 nM | CS(=O)(=O)c1ccc(CN(C(=O)c2ccncc2)c2cc(F)cc(-c3nnn[nH]3)c2)cc1 [Example 106, N-[3-fluoro-5-(1H-tetrazol-5-yl)phenyl]-N-[4-(methylsulfonyl)benzyl]isonicotinamide]
17 | 2.9 nM | Cc1ccc(CCC(=O)N(Cc2ccc(S(C)(=O)=O)cc2)c2cc(F)cc(-c3nnn[nH]3)c2)cc1 [Example 107, N-[3-fluoro-5-(1H-tetrazol-5-yl)phenyl]-3-(4-methylphenyl)-N-[4-(methylsulfonyl)benzyl]propanamide]
18 | 56 nM | Cc1cc(C(=O)N(Cc2ccc(S(C)(=O)=O)cc2)c2cc(F)cc(-c3nnn[nH]3)c2)n(C)n1 [Example 110, N-[3-fluoro-5-(1H-tetrazol-5-yl)phenyl]-1,3-dimethyl-N-[4-(methylsulfonyl)benzyl]-1H-pyrazole-5-carboxamide]
19 | 113 nM | CCC(=O)N(Cc1ccc(-c2cnoc2)cc1)c1cc(F)cc(-c2nnn[nH]2)c1 [Example 111, N-[3-fluoro-5-(1H-tetrazol-5-yl)phenyl]-N-(4-isoxazol-4-ylbenzyl)propanamide]
20 | 19 nM | CCC(=O)N(Cc1cccc([S+]([O-])C(F)(F)F)c1)c1cc(F)cc(-c2nnn[nH]2)c1 (stereo not drawn) [Example 112, N-[3-fluoro-5-(1H-tetrazol-5-yl)phenyl]-N-{3-[(trifluoromethyl)sulfinyl]benzyl}propanamide]
21 | 3.5 nM | CCC(=O)N(Cc1ccc([S+]([O-])C(F)(F)F)cc1)c1cc(F)cc(-c2nnn[nH]2)c1 (stereo not drawn) [Example 113, N-[3-fluoro-5-(1H-tetrazol-5-yl)phenyl]-N-{4-[(trifluoromethyl)sulfinyl]benzyl}propanamide]
22 | 25 nM | CCC(=O)N(Cc1ccc(O)cc1)c1cc(F)cc(-c2nnn[nH]2)c1 [Example 114, N-[3-fluoro-5-(1H-tetrazol-5-yl)phenyl]-N-(4-hydroxybenzyl)propanamide]
23 | 30 nM | CCC(=O)N(Cc1cccc(-c2ccn[nH]2)c1)c1cc(F)cc(-c2nnn[nH]2)c1 [Example 115, N-[3-fluoro-5-(1H-tetrazol-5-yl)phenyl]-N-[3-(1H-pyrazol-5-yl)benzyl]propanamide]
24 | 4.6 nM | CS(=O)(=O)c1ccc(CN(C(=O)c2cccnc2)c2cc(F)cc(-c3nnn[nH]3)c2)cc1 [Example 116, N-[3-fluoro-5-(1H-tetrazol-5-yl)phenyl]-N-[4-(methylsulfonyl)benzyl]nicotinamide]
25 | 19 nM | CC(C)C(=O)N(Cc1ccc(S(C)(=O)=O)cc1)c1cc(F)cc(-c2nnn[nH]2)c1 [Example 117, N-[3-fluoro-5-(1H-tetrazol-5-yl)phenyl]-2-methyl-N-[4-(methylsulfonyl)benzyl]propanamide]
26 | 32 nM | CS(=O)(=O)c1ccc(CN(C(=O)C2CCOCC2)c2cc(F)cc(-c3nnn[nH]3)c2)cc1 [Example 118, N-[3-fluoro-5-(1H-tetrazol-5-yl)phenyl]-N-[4-(methylsulfonyl)benzyl]tetrahydro-2H-pyran-4-carboxamide]
27 | 5.2 nM | CCC(=O)N(Cc1ccc(-c2sc(C)nc2C)cc1)c1cc(F)cc(-c2nnn[nH]2)c1 [Example 119, N-[4-(2,4-dimethyl-1,3-thiazol-5-yl)benzyl]-N-[3-fluoro-5-(1H-tetrazol-5-yl)phenyl]propanamide]

Each molecule was assayed against T2, CRTH2 (Homo sapiens, UniProt Q9Y5Y4) (assay: [35S]GTPγS binding assay on CHO-CRTH2 cell membranes). Details: without addition of PGD2; 100% of Emax being the activity measured by the addition of 1 μM of PGD2.
T2 construct: expressed in transfected cells; host or cells: CHO cells
T2 sequence (Q9Y5Y4 1-395): T1 sequence (Q9Y5Y4 1-395)
Type: biochemical
Experimental: as §1
The [^35S]GTPγS assay measures the increase in guanine nucleotide exchange at G-proteins in cell membranes, resulting from agonist (PGD2) binding to CRTH2. […] Briefly, Compounds of Formula (I) are incubated in 96-well scintillating white polystyrene plates (Perkin Elmer, USA) in a final volume of 200 μl containing 20 mM HEPES/KOH pH 7.4, 3 mM MgCl2, 10 μg/ml Saponin, 5 μM GDP, 75 mM NaCl and 2% of dimethylsulphoxide (DMSO). […] After 60 min incubation at 30° C., reaction is stopped by centrifugation at 700×g, at 4° C. for 10 minutes and supernatant is removed. […] For IC50 determination, increasing concentrations of compounds are incubated in presence of a fixed concentration of PGD2 (EC80). For EC50 measurements, compounds are incubated without addition of PGD2. Basal [^35S]GTPγS activity is determined without addition of any ligands or compounds. 100% [^35S]GTPγS activity is measured by the addition of 1 μM of PGD2.

Row | Emax | Structure (SMILES)
28 | -11.2% | CCC(=O)N(Cc1cccc(OC)c1)c1cc(F)cc(-c2nnn[nH]2)c1 [Example 39, N-[3-fluoro-5-(1H-tetrazol-5-yl)phenyl]-N-(3-methoxybenzyl)propanamide]
29 | -17.1% | CCC(=O)N(Cc1cccc(O)c1)c1cc(F)cc(-c2nnn[nH]2)c1 [Example 84, N-[3-fluoro-5-(1H-tetrazol-5-yl)phenyl]-N-(3-hydroxybenzyl)propanamide]
30 | -16.7% | CCC(=O)N(Cc1ccc(-c2c(C)cccc2C)cc1)c1cc(F)cc(-c2nnn[nH]2)c1 [Example 100]
